# Columns and labels:
# Experiment in all cases: relative viability (nuclei count vs DMSO), 5 days (fraction); higher = more cells survive
# Mirin + Dasatinib = compound: N=C1NC(=O)/C(=C/c2ccc(O)cc2)S1 [Mirin] + Cc1nc(Nc2ncc(C(=O)Nc3c(C)cccc3Cl)s2)cc(N2CCN(CCO)CC2)n1 [Dasatinib] (partner 0.075 µM)
# Summary of the method: (§1)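 Medians of duplicate plates are given as relative viability. That measure is the nuclei count in treated wells divided by the count in vehicle wells. Counts were taken on 4× images of lung cancer cell lines in 1536-well plates, 5 days after pin-tool dosing the day after seeding with one drug alone or a fixed anchor-drug dose plus five library-drug doses (not always all listed) in √10 steps.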
# [1] = compound: CCn1c(-c2nonc2N)nc2cnc(Oc3cccc(NC(=O)c4ccc(OCCN5CCOCC5)cc4)c3)cc21 + CS(=O)(=O)CCNCc1ccc(-c2ccc3ncnc(Nc4ccc(OCc5cccc(F)c5)c(Cl)c4)c3c2)o1 [Lapatinib] (partner 2 µM)
# Summary of the method: as §1
# [2] = compound: CCn1c(-c2nonc2N)nc2cnc(Oc3cccc(NC(=O)c4ccc(OCCN5CCOCC5)cc4)c3)cc21 + C[C@@H](Oc1cc(-c2cnn(C3CCNCC3)c2)cnc1N)c1c(Cl)ccc(F)c1Cl [Crizotinib] (partner 1 µM)
# Summary of the method: as §1
Cell Line,relative viability (Mirin + Dasatinib; first compound 0.25 µM),relative viability (Mirin + Dasatinib; first compound 0.7906 µM),relative viability (Mirin + Dasatinib; first compound 2.5 µM),relative viability (Mirin + Dasatinib; first compound 7.906 µM),relative viability (Mirin + Dasatinib; first compound 25 µM),relative viability ([1]; first compound 0.04 µM),relative viability ([1]; first compound 0.1265 µM),relative viability ([1]; first compound 0.4 µM),relative viability ([1]; first compound 1.265 µM),relative viability ([1]; first compound 4 µM),relative viability ([2]; first compound 0.04 µM),relative viability ([2]; first compound 0.1265 µM),relative viability ([2]; first compound 0.4 µM),relative viability ([2]; first compound 1.265 µM),relative viability ([2]; first compound 4 µM)
NCI-H596,0.643,0.596,0.559,0.525,0.569,1.04,0.942,0.978,0.87,0.97,0.857,0.934,0.932,0.959,1.03
NCI-H1755,0.396,0.383,0.391,0.389,0.436,1.11,0.928,0.713,0.641,0.6,0.911,0.94,0.845,0.795,0.776
NCI-H1993,0.518,,0.678,0.455,0.556,0.797,0.798,,0.754,0.734,0.991,0.864,,0.75,0.742
NCI-H2347,0.336,0.316,0.344,0.287,0.273,0.833,0.911,0.704,0.446,0.536,0.602,0.69,0.589,0.484,0.39
SW 900,0.513,0.521,0.54,0.542,0.47,,,,,,,,,,
NCI-H1437,0.405,0.41,0.386,0.309,0.347,0.826,0.679,0.58,0.536,0.5,0.788,0.949,0.749,0.703,0.666
SK-MES-1,0.368,0.341,0.446,0.475,0.389,0.493,0.434,0.404,0.453,0.401,1.12,0.883,0.804,0.742,0.645
NCI-H3122,0.892,0.419,0.807,0.685,0.665,1.1,1.04,0.891,0.804,0.691,0.266,0.298,0.342,0.318,0.346
NCI-H2023,0.562,0.541,0.548,0.463,0.335,1.25,0.797,0.515,0.555,0.373,0.737,0.736,0.593,0.25,0.194
PC-14,0.243,0.248,0.26,,0.295,0.343,0.227,0.232,0.264,0.283,0.874,0.884,0.87,0.683,0.7
NCI-H1299,,,,,,0.951,0.86,0.836,0.724,0.625,0.961,0.878,0.768,0.71,0.473
NCI-H1563,0.536,0.471,0.481,0.42,0.428,1.01,0.822,0.804,0.782,0.673,0.768,0.863,0.816,0.789,0.668
NCI-H727,0.345,0.285,0.337,0.4,0.256,1.12,0.894,0.339,0.868,0.569,1.16,1.04,1.14,0.835,0.823
NCI-H1734,0.484,0.436,0.469,0.45,0.438,1.03,0.93,0.6,0.38,0.403,0.671,0.669,0.581,0.464,0.285
NCI-H1650,0.307,0.294,0.306,0.256,0.231,1.04,0.747,0.74,0.671,0.694,1.12,0.957,0.897,0.761,0.711
NCI-H647,0.152,0.177,0.216,0.174,0.132,1.26,0.774,0.634,0.526,0.548,1.28,0.865,0.813,0.511,0.389
NCI-H1944,0.218,0.244,0.2,0.218,0.224,0.822,0.699,,0.691,0.553,1.15,1.11,,1.07,1.12
Calu-6,,,,,,1.22,0.932,0.985,0.616,0.517,0.864,0.698,0.519,0.346,0.373
NCI-H1395,0.439,0.434,0.429,0.376,0.418,1.22,0.92,0.632,0.418,0.57,,,,,
NCI-H1703,,,,,,1.2,0.939,0.715,0.376,0.361,0.641,0.799,0.484,0.426,0.205
EBC-1,,,,,,0.224,0.206,0.196,0.179,0.197,0.227,0.207,0.175,0.17,0.136
NCI-H2342,0.35,0.342,0.327,0.289,0.317,,,,,,,,,,
ChaGo-K-1,0.504,0.575,0.541,0.542,0.39,,,,,,1.31,1.04,0.96,,0.633
HCC-44,,,,,,1.07,1.1,0.622,0.342,0.368,0.784,1.03,0.83,0.411,0.248
NCI-H522,0.814,0.869,0.845,0.652,0.648,,,,,,,,,,
A549,,,,,,1.25,0.916,0.884,0.118,0.107,0.837,0.417,0.223,0.086,0.114
LCLC-103H,0.44,0.469,0.491,0.348,0.422,,,,,,1.08,1.09,0.962,1.01,0.967

# From the supplement of paper PMC10307832
